From patent US20130029967A1, “Fused Imidazo [3,2 - D] Pyrazines as P13 Kinase Inhibitors” (Centro Nacional de Investigaciones Oncologicas (CNIO), priority 2009, published 2013)

system: phospho-AKT (Ser473) in Osteosarcoma U2OS cells; experiment: PI3K cellular activity, ELISA (phospho-AKT Ser473); type: cell-based; settings: Homo sapiens, cellular p-AKT
Experimental: Cell culture: The cell lines were obtained from the American Type Culture Collection (ATCC). U2OS (human osteosarcoma) was cultured in Dulbecco's modified Eagle's medium (DMEM). PC3 (human prostate carcinoma), MCF7 (human breast cardinoma), HCT116 (human colon carcinoma), […], U251 (human glyoblastoma) were grown in RPMI. All media were supplemented with 10% fetal bovine serum (FBS) (Sigma) and antibiotics-antimycotics. Cell were maintained in a humidified incubator at 37° C. with 5% CO2 and passaged when confluent using trypsin/EDTA.
Activity was measured as endogenous levels of phospho-AKT (Ser473) protein. Osteosarcoma U2OS cells were plated in 96 Poly-D-Lysine coating tissue culture plates (18.000 cells/well). After the treatment with serial dilutions of the compound during 3 h, the cells were fixed directly in the wells with 4% paraformaldehide. After fixing, individual wells went through the same series of steps used for a conventional immunoblot: including blocking with 5% BSA, incubation with 1/1000 of primary antibody-AKT ([…]) in PBS containing 5% BSA at 4° C. overnight (Cell Signalling), washing and incubation with second antibody HRP-anti-mouse IgG for 1 h at RT (Amersham). After the addition of SuperSignal ELISA Femto maximum sensitivity chemiluminescent substrate (Pierce) the results were read in a luminescence plate reader (Victor).

IC50 [nM] | Compound
473 | COc1ccccc1NC(=O)N1CCc2nc3c(N4CCOCC4)nc(-c4cnc(N)nc4)cn3c2C1 [2-72]
763 | CC(C)CS(=O)(=O)N1CCc2nc3c(N4CCOCC4)nc(-c4cnc(N)nc4)cn3c2C1 [2-109]
137 | CC(C)C(=O)N1CCc2c(nc3c(N4CCOCC4)nc(-c4cnc(N)nc4)cn23)C1 [6-26]
260 | Cc1ccc(CNC(=O)N2CCc3nc4c(N5CCOCC5)nc(-c5cnc(N)nc5)cn4c3C2)cc1 [2-94]
1230 | CCNC(=O)N1CCc2nc3c(N4CCOCC4)nc(-c4cnc(N)nc4)cn3c2C1 [2-38]

biological target: T1, PI3K (p110α/p85α) (Homo sapiens, UniProt P42336); experiment: PI3K activity assay (ADP Hunter Plus); type: biochemical; settings: PI3Kα; class symbols; read-out: PI3K α IC50 (semi-quantitative)
T1 construct: purchased Carna Biosciences 07CBS-0402A
T1 sequence (P42336 whole entry): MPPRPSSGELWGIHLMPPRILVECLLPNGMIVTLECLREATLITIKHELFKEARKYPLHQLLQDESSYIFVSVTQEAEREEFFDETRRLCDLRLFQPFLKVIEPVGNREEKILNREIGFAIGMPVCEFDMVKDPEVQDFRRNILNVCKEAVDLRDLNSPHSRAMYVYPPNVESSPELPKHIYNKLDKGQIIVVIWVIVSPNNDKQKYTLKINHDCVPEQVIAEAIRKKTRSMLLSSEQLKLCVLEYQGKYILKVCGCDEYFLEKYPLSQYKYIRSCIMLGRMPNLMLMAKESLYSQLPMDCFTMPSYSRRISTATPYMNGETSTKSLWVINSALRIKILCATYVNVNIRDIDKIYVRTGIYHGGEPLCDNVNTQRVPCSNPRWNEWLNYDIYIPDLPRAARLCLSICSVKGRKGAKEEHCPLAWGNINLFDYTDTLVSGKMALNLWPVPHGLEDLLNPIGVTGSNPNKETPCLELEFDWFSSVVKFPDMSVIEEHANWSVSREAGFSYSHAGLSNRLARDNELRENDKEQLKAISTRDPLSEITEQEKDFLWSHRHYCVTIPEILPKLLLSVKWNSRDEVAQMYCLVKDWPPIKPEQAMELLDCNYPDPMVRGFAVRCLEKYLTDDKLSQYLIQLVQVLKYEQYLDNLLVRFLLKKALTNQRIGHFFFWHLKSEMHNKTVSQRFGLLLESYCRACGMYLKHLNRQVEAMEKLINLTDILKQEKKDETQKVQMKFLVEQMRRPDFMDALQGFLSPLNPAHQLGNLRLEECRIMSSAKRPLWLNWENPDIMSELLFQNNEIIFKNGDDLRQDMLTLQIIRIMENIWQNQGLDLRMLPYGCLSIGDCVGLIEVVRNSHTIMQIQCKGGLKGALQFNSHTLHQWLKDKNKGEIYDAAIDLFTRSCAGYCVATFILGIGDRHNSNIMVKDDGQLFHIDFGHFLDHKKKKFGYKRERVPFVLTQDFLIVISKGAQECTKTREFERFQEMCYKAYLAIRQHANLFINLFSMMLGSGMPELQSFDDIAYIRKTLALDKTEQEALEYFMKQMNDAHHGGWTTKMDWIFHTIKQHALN
T1 sequence (P27986 whole entry partner): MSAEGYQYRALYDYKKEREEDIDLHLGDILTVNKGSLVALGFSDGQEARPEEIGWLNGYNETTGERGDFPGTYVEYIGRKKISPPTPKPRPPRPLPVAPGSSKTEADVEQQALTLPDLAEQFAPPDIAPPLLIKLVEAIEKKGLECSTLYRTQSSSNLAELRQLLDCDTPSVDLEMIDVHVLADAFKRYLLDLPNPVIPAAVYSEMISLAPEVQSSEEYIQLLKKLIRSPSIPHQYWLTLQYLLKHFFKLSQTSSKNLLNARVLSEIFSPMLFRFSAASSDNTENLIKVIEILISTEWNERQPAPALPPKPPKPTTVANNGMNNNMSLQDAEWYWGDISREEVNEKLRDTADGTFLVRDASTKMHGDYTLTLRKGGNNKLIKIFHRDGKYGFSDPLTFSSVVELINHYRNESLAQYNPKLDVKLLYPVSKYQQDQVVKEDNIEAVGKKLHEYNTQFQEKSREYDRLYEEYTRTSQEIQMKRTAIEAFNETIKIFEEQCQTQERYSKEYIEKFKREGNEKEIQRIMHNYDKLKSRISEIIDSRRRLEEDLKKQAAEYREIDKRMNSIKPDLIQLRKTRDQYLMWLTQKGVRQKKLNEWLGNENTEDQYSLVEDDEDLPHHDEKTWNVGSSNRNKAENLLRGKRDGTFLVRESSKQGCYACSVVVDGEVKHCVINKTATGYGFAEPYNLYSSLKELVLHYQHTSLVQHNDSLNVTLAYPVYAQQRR
Experimental: The kinase activity was measured by using the commercial ADP Hunter™ Plus assay available from DiscoveRx (#33-016), which is a homogeneous assay to measure the accumulation of ADP, a universal product of kinase activity. […] Reaction was carried out for 1 hour at 25° C. Reagent A and B were sequentially added to the wells and plates were incubated for 30 min at 37° C. […] Values were normalized against the control activity included for each enzyme (i.e., 100% PI3 kinase activity, without compound). These values were plot against the inhibitor concentration and were fit to a sigmoid dose-response curve by using the Graphed software.

IC50 [nM] | Compound
> 1000 | CCOC(=O)N1CCc2nc3c(N4CCOCC4)nc(-c4cnc(N)c(C(F)(F)F)c4)cn3c2C1 [2-25]
> 1000 | CCOC(=O)C1CCC(N2CCc3nc4c(N5CCOCC5)nc(-c5cnc(N)nc5)cn4c3C2)CC1 (stereo not shown) [2-40]
> 1000 | CS(=O)(=O)c1ccc(CN2CCc3nc4c(N5CCOCC5)nc(-c5cccc6[nH]ncc56)cn4c3C2)cc1 [2-10]
> 1000 | CCOC(=O)N1CCc2nc3c(N4CCOCC4)nc(-c4c(F)ccc5[nH]ccc45)cn3c2C1 [2-26]
> 1000 | c1cc(-c2cn3c4c(nc3c(N3CCOCC3)n2)CCN(Cc2nccs2)C4)c2cn[nH]c2c1 [2-06]
> 1000 | c1nc(NCC2CC2)ncc1-c1cn2c3c(nc2c(N2CCOCC2)n1)CCN(CC1CC1)C3 [2-47]
> 1000 | Nc1ncc(-c2cn3c4c(nc3c(N3CCOCC3)n2)CCN(CC2CCOCC2)C4)cn1 [2-36]
> 1000 | CCOC(=O)N1CCc2nc3c(N4CCOCC4)nc(-c4cncc(OC)c4)c(Cl)n3c2C1 [2-30]
> 1000 | c1cc(-c2cn3c4c(nc3c(N3CCOCC3)n2)CCN(CC2CNC2)C4)c2cn[nH]c2c1 [2-14]
> 1000 | c1cncc(CN2CCc3nc4c(N5CCOCC5)nc(-c5cccc6[nH]ncc56)cn4c3C2)c1 [2-05]
> 1000 | CCOC(=O)N1CCc2nc3c(N4CCOCC4)nc(-c4ccc5[nH]ccc5c4)c(Cl)n3c2C1 [2-29]
< 500 | CC(C)NC(=O)N1CCc2nc3c(N4CCOCC4)nc(-c4cnc(N)nc4)cn3c2C1 [2-44]
> 1000 | CCOC(=O)N1CCc2nc3c(N4CCOCC4)nc(-c4ccc(N)nc4)cn3c2C1 [2-21]
> 1000 | CCOC(=O)N1CCc2nc3c(N4CCOCC4)nc(-c4cncnc4)cn3c2C1 [2-41]
> 1000 | CCOC(=O)N1CCc2nc3c(N4CCOCC4)nc(-c4cccnc4)c(Cl)n3c2C1 [2-31]
> 1000 | CCOC(=O)N1CCc2nc3c(N4CCOCC4)nc(-c4cccc5[nH]ncc45)cn3c2C1 [2-03, 3-(1H-Indazol-4-yl)-1-morpholin-4-yl-7,8-dihydro-5H-2,4-a,6,9-tetraaza-fluorene-6-carboxylic acid ethyl ester]
> 1000 | CCOC(=O)N1CCc2nc3c(N4CCOCC4)nc(-c4cccnc4)cn3c2C1 [2-24]
> 1000 | c1cc(-c2cn3c4c(nc3c(N3CCOCC3)n2)CCN(CC2CCOCC2)C4)c2cn[nH]c2c1 [2-09]
> 1000 | c1cc(-c2cn3c4c(nc3c(N3CCOCC3)n2)CCN(Cc2ncc[nH]2)C4)c2cn[nH]c2c1 [2-13]
> 1000 | CCOC(=O)N1CCc2nc3c(N4CCOCC4)nc(-c4ccc5[nH]ccc5c4)cn3c2C1 [2-22]

same assay, conditions: PI3Kα; quantitative results; read-out: PI3K α IC50

IC50 [nM] | Compound
724 | CCOC(=O)N1CCc2nc3c(N4CCOCC4)nc(-c4cnc(OC)nc4)cn3c2C1 [2-19]
47 | COc1ccccc1NC(=O)N1CCc2nc3c(N4CCOCC4)nc(-c4cnc(N)nc4)cn3c2C1 [2-72]
340 | Nc1ncc(-c2cn3c4c(nc3c(N3CCOCC3)n2)CCN(CC2CCCC2)C4)cn1 [2-80]
1780 | c1coc(CN2CCc3nc4c(N5CCOCC5)nc(-c5cccc6[nH]ncc56)cn4c3C2)c1 [2-11]
95 | CC(C)CS(=O)(=O)N1CCc2nc3c(N4CCOCC4)nc(-c4cnc(N)nc4)cn3c2C1 [2-109]
363 | Nc1ncc(-c2cn3c4c(nc3c(N3CCOCC3)n2)CCN(CC2CCCCC2)C4)cn1 [2-37]
852 | c1cc(-c2cn3c4c(nc3c(N3CCOCC3)n2)CCN(Cc2ccncc2)C4)c2cn[nH]c2c1 [2-07]
37 | Cc1ccc(CNC(=O)N2CCc3nc4c(N5CCOCC5)nc(-c5cnc(N)nc5)cn4c3C2)cc1 [2-94]
185 | Oc1cccc(-c2cn3c4c(nc3c(N3CCOCC3)n2)CCNC4)c1 [2-02]
148 | CCCNC(=O)N1CCc2nc3c(N4CCOCC4)nc(-c4cnc(N)nc4)c(Cl)n3c2C1 [2-54]
1780 | CCOC(=O)N1CCc2nc3c(N4CCOCC4)nc(-c4cnc(N)c(C(F)(F)F)c4)c(Cl)n3c2C1 [2-33]
550 | CC(C)C(=O)N1CCc2nc3c(N4CCOCC4)nc(-c4cnc(N)nc4)cn3c2C1 [2-43]
33 | CCCCS(=O)(=O)N1CCc2nc3c(N4CCOCC4)nc(-c4cnc(N)nc4)cn3c2C1 [2-55]
603 | CCOC(=O)N1CCc2nc3c(N4CCOCC4)nc(-c4cnc(OC)nc4)c(Cl)n3c2C1 [2-27]
125 | Nc1ncc(-c2cn3c4c(nc3c(N3CCOCC3)n2)CCN(Cc2ccncc2)C4)cn1 [2-107]
240 | COc1cccc(CN2CCc3nc4c(N5CCOCC5)nc(-c5cnc(N)nc5)cn4c3C2)c1 [2-95]

IC50 [nM] | Compound
19 | N#CCCCS(=O)(=O)N1CCc2nc3c(N4CCOCC4)nc(-c4cnc(N)nc4)cn3c2C1 [2-77]
310 | Nc1ncc(-c2cn3c4c(nc3c(N3CCOCC3)n2)CCN(Cc2ccc(OC(F)(F)F)cc2)C4)cn1 [2-100]
175 | Nc1ncc(-c2cn3c4c(nc3c(N3CCOCC3)n2)CCN(Cc2ccnnc2)C4)cn1 [2-84]
257 | CCN1CCc2nc3c(N4CCOCC4)nc(-c4cnc(N)nc4)cn3c2C1 [2-45]
2700 | CCOC(=O)N1CCc2nc3c(N4CCOCC4)nc(-c4cncc(OC)c4)cn3c2C1 [2-23]
692 | CC(C)CN1CCc2nc3c(N4CCOCC4)nc(-c4cnc(N)nc4)cn3c2C1 [2-35]
101 | Nc1ncc(-c2nc(N3CCOCC3)c3nc4c(n3c2Cl)CN(S(=O)(=O)c2ccccc2)CC4)cn1 [2-58]
3330 | CS(=O)(=O)c1cccc(CN2CCc3nc4c(N5CCOCC5)nc(-c5cccc6[nH]ncc56)cn4c3C2)c1 [2-15]
1070 | CCOC(=O)N1CCc2nc3c(N4CCOCC4)nc(-c4cnc5[nH]ccc5c4)c(Cl)n3c2C1 [2-28]
100 | COC(=O)N1CCc2nc3c(N4CCOCC4)nc(-c4cnc(N)nc4)cn3c2C1 [2-48]
708 | c1cc(-c2cn3c4c(nc3c(N3CCOCC3)n2)CCN(Cc2ccoc2)C4)c2cn[nH]c2c1 [2-12]
207 | CCOC(=O)N1CCc2nc3c(N4CCOCC4)nc(-c4cccc(O)c4)cn3c2C1 [2-01, 3-(3-Hydroxy-phenyl)-1-morpholin-4-yl-7,8-dihydro-5H-2,4-a,6,9-tetraaza-fluorene-6-carboxylic acid ethyl ester]
238 | Nc1ncc(-c2cn3c4c(nc3c(N3CCOCC3)n2)CCN(C2CCCCC2)C4)cn1 [2-81]
1050 | CCOC(=O)N1CCc2nc3c(N4CCOCC4)nc(-c4cnc5[nH]ccc5c4)cn3c2C1 [2-20]
94 | CCCC(=O)N1CCc2nc3c(N4CCOCC4)nc(-c4cnc(N)nc4)cn3c2C1 [2-86]
439 | c1ccc(CN2CCc3nc4c(N5CCOCC5)nc(-c5cccc6[nH]ncc56)cn4c3C2)nc1 [2-08]

same assay, conditions: quantitative results; read-out: PI3K α IC50

IC50 [nM] | Compound
90 | Nc1ncc(-c2cn3c4c(nc3c(N3CCOCC3)n2)CCN(C(=O)Nc2cc(Cl)cc(Cl)c2)C4)cn1 [2-112]
409 | O=C1CCc2nc3c(N4CCOCC4)nc(-c4cccc(O)c4)cn3c2N1 [5-10]
661 | CC1(C)Cc2nc3c(N4CCOCC4)nc(-c4cnc(N)nc4)cn3c2C(O)C1 (stereo not shown) [5-05]
44 | CC(C)C(=O)N1CCc2c(nc3c(N4CCOCC4)nc(-c4cnc(N)nc4)cn23)C1 [6-26]
100 | CC(C)NC(=O)N1CCc2c(nc3c(N4CCOCC4)nc(-c4cnc(N)nc4)cn23)C1 [6-22]
139 | Nc1ncc(-c2cn3c4c(nc3c(N3CCOCC3)n2)CCN(Cc2nccs2)C4)cn1 [2-111]
290 | Nc1ncc(-c2nc(N3CCOCC3)c3nc4c(n3c2Cl)CCN(Cc2ccc(F)cc2)C4)cn1 [6-12]
7 | Nc1ncc(-c2cn3c4c(nc3c(N3CCOCC3)n2)CCN(S(=O)(=O)C2CNC2)C4)cn1 [2-110]
178 | CN(C)CCN1CCc2c(nc3c(N4CCOCC4)nc(-c4cnc(N)nc4)cn23)C1 [6-04]
23 | Nc1ncc(-c2cn3c4c(nc3c(N3CCOCC3)n2)CN(C(=O)C(F)(F)F)CC4)cn1 [6-14]
31 | N#CCCCS(=O)(=O)N1CCc2c(nc3c(N4CCOCC4)nc(-c4cnc(N)nc4)cn23)C1 [6-29]
79 | COCCC(=O)N1CCc2c(nc3c(N4CCOCC4)nc(-c4cnc(N)nc4)cn23)C1 [6-35]
81 | N#Cc1cccc(NC(=O)N2CCc3nc4c(N5CCOCC5)nc(-c5cnc(N)nc5)cn4c3C2)c1 [2-113]
37 | CS(=O)(=O)c1ccccc1CN1CCc2nc3c(N4CCOCC4)nc(-c4cnc(N)nc4)cn3c2C1 [2-117]
18 | Nc1ncc(-c2cn3c4c(nc3c(N3CCOCC3)n2)CN(S(=O)(=O)C2CCOCC2)CC4)cn1 [6-28]
22 | CCS(=O)(=O)N1CCc2c(nc3c(N4CCOCC4)nc(-c4cnc(N)nc4)cn23)C1 [6-20]
